pIC50: −log10 of the molar value.
How the values were obtained:
[1] = in vitro; details: mouse, microsomes, pH 7.4, t1/2 mouse
Method: (§1) Human liver microsomes (cat. No. 452161), mouse liver microsomes (cat. No. 452701), were purchased from Corning.
(§2) Samples were analyzed using LC-MS/MS using a SCIEX API 4000 mass spectrometer coupled with Agilent HPLC analytical system. After separation on a ZORBAX XDB-C18 column (5 μm, 50×2.1 mm, column No. 50-282) using an acetonitrile-water gradient system, peaks were analyzed by mass spectroscopy (MS) using ESI ionization in Q1 and Q3 scan mode.
(§3) The LC and MS are all controlled by Analyst software.
(§4) The liver microsomes were incubated with 1.0 μM of the testing compound at 37° C. The incubation mixture contained 100 mM PBS buffer (pH=7.4), 3 mM MgCl2 and 1 mM NADPH. The concentration of liver microsome in the incubation mixture was 0.5 mg/mL for testing compound, and 0.2 mg/mL for MDZ and the total volume is 0.2 mL. […] Aliquots were withdrawn at time points of 0 min, 5 min and 20 min for MDZ. The reactions were terminated by transferring the aliquots to a methanol solution containing the internal standard […] for analytical quantification. The quenched samples were analyzed by LC-MS/MS. The incubations were carried out in duplicates. The metabolic stability of the testing compounds by the liver microsomes of human and mice is expressed as elimination half-life (t1/2). The results are shown as the means of duplicate determinations±SD.

[2] = tested on: human breast squamous HCC1806 cell line; assay: CyQUANT Direct cell proliferation assay, HCC1806; format: cell-based; details: HCC1806, 168 h, 7 days
Description: (§5) The human ovarian carcinoma OVCAR3 cell line (ATCC HTB-161™) or human breast squamous HCC1806 cell line (ATCC CRL 2335) were obtained from American Type Culture Collection (ATCC), and maintained in culture media according to the supplier's specification.
(§6) The CyQUANT® Direct Cell Proliferation Assay Kit (Invitrogen™, catalog No. G35012) was utilized to test the inhibitory activities of the CDK2 inhibitors described in this disclosure against OVCAR3 or HCC1806 tumor cells.
(§7) CyQUANT® Direct Cell Proliferation Assay: The spent medium from the purchased tumor cell culture plate was removed and the tumor cells were washed with PBS buffer twice. Trypsin (VWR catalog No. 0458-25G) was added to digest the tumor cells until tumor cells appeared round shaped and to dissociate adherent cells from the plate wall in which they are being cultured. Then RPMI-1640 media (HCC1806, Gibco™ catalog No, A10491-01) with 10% fetal bovine serum (FBS) (Hyclone™ catalog No. SV30160.03), or RPMI-1640 media (OVCAR-3, Gibco™ catalog No. 10370-021) with 20% FBS and 0.01 mg/mL insulin was added to stop the trypsin digestion reaction. The tumor cells were lightly agitated with a liquid transfer pipette to cause tumor cells suspended in the culture media. The cells were counted. The complete medium was used to prepare tumor cell suspension.
(§8) OVCAR3 or HCC1806 cells were seeded at 40 μL/well in 384-well plates in growth media containing FBS and cultured 24 hours in the incubator at 37° C., 5% CO2. […] Compound solutions were added by Agilent Bravo liquid handler. […] The control wells contained the growth medium having 0.1% DMSO. Cells were incubated at 37° C., 5% CO2 for 7 days.
(§9) CYQUANT Direct Cell Proliferation Assay (Molecular Probes, Eugene, Oreg.) was then performed following manufacturer's instructions to prepare the detection reagents. 50 μL of detection reagent was aliquot and added to each well and the cells were incubated at 37° C. for 1 hr.
(§10) The cell culture plates were placed on TECAN M1000 microplate reader to detect the fluorescence intensity at 508 nm excitation and 527 nm emission wavelengths. Graphpad Prism 6.0 software was used for data processing, preparing cell growth curve, calculating percentage inhibition on cell growth. IC50 values were calculated by concentration-response curve fitting utilizing a four-parameter analytical method using GraphPad Prism software.

[3] = in vitro; details: human, microsomes, pH 7.4, t1/2 human
Method: as §1, §2, §3, §4

[4] = tested on: human ovarian carcinoma OVCAR3 cell line; assay: CyQUANT Direct cell proliferation assay, OVCAR-3; format: cell-based; details: OVCAR-3, 168 h, 7 days
Description: as §5, §6, §7, §8, §9, §10

[5] = molecular target: CDK9/Cyclin T1 (Homo sapiens, UniProt P50750); assay: CDK9/Cyclin T1 kinase assay; format: biochemical
CDK9/Cyclin T1, sequence (P50750 whole entry): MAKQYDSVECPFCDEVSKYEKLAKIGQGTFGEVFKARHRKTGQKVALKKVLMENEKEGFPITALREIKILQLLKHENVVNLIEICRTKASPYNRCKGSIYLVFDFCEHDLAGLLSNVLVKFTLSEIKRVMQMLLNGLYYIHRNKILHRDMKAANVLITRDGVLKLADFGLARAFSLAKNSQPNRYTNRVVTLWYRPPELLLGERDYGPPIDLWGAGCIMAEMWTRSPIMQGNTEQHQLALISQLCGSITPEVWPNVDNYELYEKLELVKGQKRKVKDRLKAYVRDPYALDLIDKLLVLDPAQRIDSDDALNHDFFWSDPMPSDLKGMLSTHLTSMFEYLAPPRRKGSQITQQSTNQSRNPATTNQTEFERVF
CDK9/Cyclin T1, sequence (O60563 whole entry partner): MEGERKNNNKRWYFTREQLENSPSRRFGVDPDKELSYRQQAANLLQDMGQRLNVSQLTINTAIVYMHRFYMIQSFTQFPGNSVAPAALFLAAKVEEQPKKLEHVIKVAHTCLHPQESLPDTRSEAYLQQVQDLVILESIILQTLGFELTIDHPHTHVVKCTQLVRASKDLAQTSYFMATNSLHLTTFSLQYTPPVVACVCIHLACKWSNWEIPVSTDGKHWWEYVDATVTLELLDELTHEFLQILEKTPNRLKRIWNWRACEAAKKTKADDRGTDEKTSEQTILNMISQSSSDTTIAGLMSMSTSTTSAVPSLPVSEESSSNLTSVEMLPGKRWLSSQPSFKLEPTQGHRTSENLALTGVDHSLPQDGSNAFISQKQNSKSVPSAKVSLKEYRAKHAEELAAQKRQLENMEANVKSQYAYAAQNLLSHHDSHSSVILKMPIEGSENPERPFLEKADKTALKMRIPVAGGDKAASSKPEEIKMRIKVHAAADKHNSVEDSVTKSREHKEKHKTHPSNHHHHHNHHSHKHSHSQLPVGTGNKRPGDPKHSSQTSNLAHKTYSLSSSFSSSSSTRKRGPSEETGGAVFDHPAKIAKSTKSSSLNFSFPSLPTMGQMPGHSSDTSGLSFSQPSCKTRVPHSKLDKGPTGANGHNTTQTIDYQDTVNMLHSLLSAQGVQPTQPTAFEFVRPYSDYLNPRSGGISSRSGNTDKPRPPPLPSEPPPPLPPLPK
Method: (1). Recombinant enzymes CDK1, CDK2, CDK4, CDK6, CDK9, cyclin B1, cyclin A2, cyclin D3, cyclin E1, cyclin T1 were cloned and purified at Wuxi Biortus Biochemistry Co. Ltd.
(8) Peptide substrate-CDK9 (Ahx-GSRTPMY-NH2, Scilight-Peptide, Cat. C0769102).
The test compounds were dissolved and diluted in DMSO. A stock DMSO solution of the test compound of the invention was prepared by dissolving the compound in DMSO to form a 10 mM solution.
2 μL of testing compound solutions and 5 μL of enzyme solution were added into the 384-well microplate followed by a 10 minute incubation. The reaction was then initiated by the addition of 5 μL of peptide substrate and ATP mixture solution and incubated at 27° C. for 30 minutes. The enzyme reaction in each well was terminated by adding 4 μL of 120 mM EDTA solution. Each assay was carried out in duplicates.
DMSO was used as negative control (0%) for enzyme activity. 20 μM Staurosporine was used as positive control (100%) for enzyme activity.
Plates were read for fluorescence on a Caliper EZ Reader II by separating the fluorescent labeled substrate from the enzyme phosphorylation product by electrophoresis. Data were collected and analyzed using GraphPad Prism version 6.0 software.
Dose-response curves were plotted from inhibition data generated, each in duplicate, from 10 point serial dilutions of inhibitory compounds. Concentration of compound was plotted against % kinase activity. To generate IC50 values, the dose-response curves were then fitted to a standard sigmoidal curve and IC50 values were derived by nonlinear regression analysis.

| SMILES | half-life at 1 μM [1] | pIC50 [2] | half-life at 1 μM [3] | pIC50 [4] | pIC50 [5] |
| --- | --- | --- | --- | --- | --- |
| Cc1cc2cnc(NC3CCN(S(C)(=O)=O)CC3)nc2n([C@@H]2CCC[C@@]2(C)O)c1=O (racemic) [Comp. 3, (±)-8-(2-hydroxy-2-methylcyclopentyl)-6-methyl-2-((1-(methylsulfonyl)piperidin-4-yl)amino)pyrido[2,3-d]pyrimidin-7(8H)-one, reference compound] | – | 7.27 | – | 7.41 | – |
| C[C@@]1(O)CCC[C@H]1n1c(=O)ccc2cnc(NC3CCN(S(C)(=O)=O)CC3)nc21 [Comp. 6, (−)-8-(2-hydroxy-2-methylcyclopentyl)-2-((1-(methylsulfonyl)piperidin-4-yl)amino)pyrido[2,3-d]pyrimidin-7(8H)-one, reference compound] | 0.403 h | 7.25 | 11.6 h | 7.41 | 5.19 |
| [2H]C([2H])([2H])c1cc2cnc(NC3CCN(S(C)(=O)=O)CC3)nc2n(C2CCCC2(C)O)c1=O (racemic) [Comp. 11, (±)-8-(2-hydroxy-2-methylcyclopentyl)-6-(methyl-d3)-2-((1-(methylsulfonyl)piperidin-4-yl)amino)pyrido[2,3-d]pyrimidin-7(8H)-one] | – | 7.54 | – | 7.67 | – |
| [2H]C1(Nc2ncc3ccc(=O)n([C@@H]4CCC[C@@]4(C)O)c3n2)CCN(S(C)(=O)=O)CC1 [Comp. 47, (−)-8-((1R,2R)-2-hydroxy-2-methylcyclopentyl)-2-((1-(methylsulfonyl)piperidin-4-yl-4-d)amino)pyrido[2,3-d]pyrimidin-7(8H)-one] | 0.408 h | – | 16.5 h | – | – |

Further lines, results first:

| half-life at 1 μM [1] | pIC50 [2] | half-life at 1 μM [3] | pIC50 [4] | pIC50 [5] | SMILES |
| --- | --- | --- | --- | --- | --- |
| 0.392 h | 7.16 | 9.62 h | – | – | [2H]C1([2H])CN(S(C)(=O)=O)CC([2H])([2H])C1Nc1ncc2ccc(=O)n([C@@H]3CCC[C@@]3(C)O)c2n1 [Comp. 61, (−)-8-((1R,2R)-2-hydroxy-2-methylcyclopentyl)-2-((1-(methylsulfonyl)piperidin-4-yl-3,3,5,5-d4)amino)pyrido[2,3-d]pyrimidin-7(8H)-one] |
| – | 6.79 | – | 5.36 | – | CCN1CCN(Cc2ccc(Nc3ncc(F)c(-c4cc(F)c5nc(C)n(C(C)C)c5c4)n3)nc2)CC1 [LY2835219] |
| – | 6.90 | – | 6.98 | 5.22 | [2H]C(F)(F)c1cc2cnc(NC3CCN(S(C)(=O)=O)CC3)nc2n(C2CCCC2(C)O)c1=O (racemic) [Comp. 20, (±)-6-(difluoromethyl-d)-8-(2-hydroxy-2-methylcyclopentyl)-2-((1-(methylsulfonyl)piperidin-4-yl)amino)pyrido[2,3-d]pyrimidin-7(8H)-one] |
| – | 7.06 | – | 7.27 | – | C[C@@]1(O)CCC[C@H]1n1c(=O)ccc2cnc(NC3CCN(S(C)(=O)=O)CC3)nc21 (racemic) [Comp. 1, (±)-8-(2-hydroxy-2-methylcyclopentyl)-2-((1-(methylsulfonyl)piperidin-4-yl)amino)pyrido[2,3-d]pyrimidin-7(8H)-one, reference compound] |
